Reference: US20240238425A1, “HSD17B13 Inhibitors and/or Degraders” (Pfizer Inc., priority 2022, published 2024)
Structures can show the parent of a compound that is named as a salt.

System: HiBiT-HSD17β13 fusion protein (N-terminal HiBiT-tagged HSD17β13 isoform D) in Huh7 HiBiT-HSD17β13 OE cells
Experiment: Whole-cell Huh7-HSD17B13 HiBiT assay (degrader potency and maximal efficacy, luminescence readout)
Format: cell-based, human
Conditions: 24 hour incubation, geometric mean, * = geometric mean for all forms tested (parent and salt forms); for DC50: read-out: Huh7_HIBIT-HSD17β13_DC50 GMean DC50; for Huh7_HIBIT-HSD17β13_DC50 GMean Asymptote Maximum: max. concentration 1 μM
Method: Degrader potency and maximal efficacy of test compounds were determined using a whole-cell Huh7-HSD17B13 HiBiT assay, utilizing a luminescence readout. A HiBiT tag was fused to the N-terminus of HSD17β13, and therefore the HiBiT luminescence signal produced in the assay was proportional to the level of HiBiT-HSD17β13 fusion protein in a sample.
A Huh7 HiBiT-HSD17β13 OE cell line was generated using electroporation with an N-terminal HiBiT-tagged HSD17β13 isoform D overexpression plasmid, followed by geneticin selection to produce a stable pool. Clones were created with varying HiBiT signals to optimize HiBiT HSD17 β13 ratios. A clone with similar HSD17β13 expression levels as human primary hepatocytes was selected for the compound screen.
Greiner 384-well white opaque, flat bottom, tissue culture treated plates (Greiner #781080) were used for both HiBiT and CTG assays. The treated plates were spotted with 25 nL of a compound which had been serial diluted 1 in 3.162 in 100% DMSO for an 11-point concentration response curve, with duplicate points at each concentration. The maximum concentration of the compounds was 1 mM, which was later diluted with cell suspension for a maximum concentration of 1 μM). High percentage effect (HPE) wells and zero percentage effect (ZPE) wells located in columns 1 and 24 were spotted with 25 nL of DMSO (Sigma #D2650) using an ECHO Acoustic Liquid Handler (Labcyte Echo 550 Series). Each plate was performed in duplicate.
The Huh7 HiBiT-HSD17β13 OE cells were plated on top of a compound or a DMSO control at 3,000 viable cells/well in 25 μL growth media (DMEM (Gibco #10569), 10% FBS HI (Gibco #16140), 1× Pen/Strep (Gibco #15070), 1×MEM Non-Essential Amino Acids (Gibco #11140), and 300 μg/mL Geneticin (Gibco #10131) in columns 2-24 of the plates. Huh7 parental cells were plated using the same parameters in column 1 (HPE) in the same culture medium, excluding Geneticin selection. Cells were incubated overnight with the compounds for 24 hours (with lid) at 37° C. ([…]).
Each assay was conducted after a 24 hour incubation period. In the HiBiT assay plates, 25 μL of complete Nano-Glo HiBiT Lytic detection system (Promega #PRN3040), consisting of HiBiT Lytic Buffer with the addition of 1:100 LgBiT Protein and 1:50 Substrate, was added to each well. In CTG counter screen plates, 25 μL of Cell Titer-Glo Luminescent Reagent (Promega #G7573) was added to each well. Both plates were centrifuged for 2 minutes at 1000 rpm and incubated at room temperature, in the dark, for 10 minutes. Then Luminescence was read using an EnVision Plate Reader (Perkin Elmer PE2103).
The raw data from the Envision Plate Reader was expressed as relative luminescence units (RLUs) for each well of the assay plates. Using HPE and ZPE controls, the % effect was calculated for each sample well as follows: Percent effect=[(sample RLU−HPE RLU)\(ZPE RLU−HPE RLU)]*100. The percent effect was plotted versus the compound concentration and a 50% degradation ([…]) was determined using a four-parameter logistic dose response equation. The raw data was analyzed using ABase (IDBS).

Row | SMILES | DC50 | Huh7_HIBIT-HSD17β13_DC50 GMean Asymptote Maximum
1 | Cl.Cn1c(=O)n(C2CCC(=O)NC2=O)c2ccc(CCCN3CCN(c4ncc(-c5ccc6cn([C@H]7CC[C@H](CNC(=O)c8cc(F)c(O)c(F)c8F)CC7)nc6c5)cn4)CC3)cc21 (mixture of isomers) [Example 24, N-{[(1r,4r)-4-(6-{2-[4-(3-{1-[(3RS)-2,6-dioxopiperidin-3-yl]-3-methyl-2-oxo-2,3-dihydro-1H-benzimidazol-5-yl}propyl)piperazin-1-yl]pyrimidin-5-yl}-2H-indazol-2-yl)cyclohexyl]methyl}-2,3,5-trifluoro-4-hydroxybenzamide, hydrochloride salt] | 0.18 nM | 88* %
2 | Cl.Cn1c(=O)n(C2CCC(=O)NC2=O)c2cccc(CN3CCN(c4ncc(-c5ccc6cn([C@H]7CC[C@H](CNC(=O)c8cc(F)c(O)c(F)c8F)CC7)nc6c5)cn4)CC3)c21 (mixture of isomers) [Example 25, N-{[(1r,4r)-4-(6-{2-[4-({1-[(3RS)-2,6-dioxopiperidin-3-yl]-3-methyl-2-oxo-2,3-dihydro-1H-benzimidazol-4-yl}methyl)piperazin-1-yl]pyrimidin-5-yl}-2H-indazol-2-yl)cyclohexyl]methyl}-2,3,5-trifluoro-4-hydroxybenzamide, hydrochloride salt] | 0.85 nM | 84%
3 | Cl.Cn1c(=O)n(C2CCC(=O)NC2=O)c2ccc(CN3CCN(c4ncc(-c5ccc6cn([C@H]7CC[C@H](CNC(=O)c8cc(F)c(O)c(F)c8F)CC7)nc6c5)cn4)CC3)cc21 (mixture of isomers) [Example 26, N-{[(1r,4r)-4-(6-{2-[4-({1-[(3RS)-2,6-dioxopiperidin-3-yl]-3-methyl-2-oxo-2,3-dihydro-1H-benzimidazol-5-yl}methyl)piperazin-1-yl]pyrimidin-5-yl}-2H-indazol-2-yl)cyclohexyl]methyl}-2,3,5-trifluoro-4-hydroxybenzamide, hydrochloride salt] | 0.5 nM | 82%
4 | Cl.Cn1c(=O)n(C2CCC(=O)NC2=O)c2ccc(CCCN3CCN(c4ccc5cn([C@H]6CC[C@H](CNC(=O)c7cc(F)c(O)c(F)c7F)CC6)nc5c4)CC3)cc21 (mixture of isomers) [Example 27, N-{[(1r,4r)-4-{6-[4-(3-{1-[(3RS)-2,6-dioxopiperidin-3-yl]-3-methyl-2-oxo-2,3-dihydro-1H-benzimidazol-5-yl}propyl)piperazin-1-yl]-2H-indazol-2-yl}cyclohexyl]methyl}-2,3,5-trifluoro-4-hydroxybenzamide, hydrochloride salt] | 0.82 nM | 86%
5 | Cn1c(=O)n(C2CCC(=O)NC2=O)c2ccc(CCCN3CCn4c(-c5ccc6cn([C@H]7CC[C@H](CNC(=O)c8cc(F)c(O)c(F)c8F)CC7)nc6c5)cnc4C3)cc21 (mixture of isomers) [Example 31, N-{[(1r,4r)-4-{6-[7-(3-{1-[(3RS)-2,6-dioxopiperidin-3-yl]-3-methyl-2-oxo-2,3-dihydro-1H-benzimidazol-5-yl}propyl)-5,6,7,8-tetrahydroimidazo[1,2-a]pyrazin-3-yl]-2H-indazol-2-yl}cyclohexyl]methyl}-2,3,5-trifluoro-4-hydroxybenzamide, trifluoroacetate salt] | 0.99 nM | 85%
6 | Cn1c(=O)n(C2CCC(=O)NC2=O)c2ccc(CCCN3CCc4ccc(-c5ccc6cn([C@H]7CC[C@H](CNC(=O)c8cc(F)c(O)c(F)c8F)CC7)nc6c5)cc4C3)cc21 (mixture of isomers) [Example 32, N-{[(1r,4r)-4-{6-[2-(3-{1-[(3RS)-2,6-dioxopiperidin-3-yl]-3-methyl-2-oxo-2,3-dihydro-1H-benzimidazol-5-yl}propyl)-1,2,3,4-tetrahydroisoquinolin-7-yl]-2H-indazol-2-yl}cyclohexyl]methyl}-2,3,5-trifluoro-4-hydroxybenzamide, trifluoroacetate salt] | 0.3 nM | 83%
7 | Cn1c(=O)n(C2CCC(=O)NC2=O)c2ccc(CCCN3CC(n4cc(-c5ccc6cn([C@H]7CC[C@H](CNC(=O)c8cc(F)c(O)c(F)c8F)CC7)nc6c5)cn4)C3)cc21 (mixture of isomers) [Example 33, N-{[(1r,4r)-4-(6-{1-[1-(3-{1-[(3RS)-2,6-dioxopiperidin-3-yl]-3-methyl-2-oxo-2,3-dihydro-1H-benzimidazol-5-yl}propyl)azetidin-3-yl]-1H-pyrazol-4-yl}-2H-indazol-2-yl)cyclohexyl]methyl}-2,3,5-trifluoro-4-hydroxybenzamide] | 0.62 nM | 86%
8 | Cn1c(=O)n(C2CCC(=O)NC2=O)c2ccc(CCCN3CCc4cc(-c5ccc6cn([C@H]7CC[C@H](CNC(=O)c8cc(F)c(O)c(F)c8F)CC7)nc6c5)ccc4C3)cc21 (mixture of isomers) [Example 34, N-{[(1r,4r)-4-{6-[2-(3-{1-[(3RS)-2,6-dioxopiperidin-3-yl]-3-methyl-2-oxo-2,3-dihydro-1H-benzimidazol-5-yl}propyl)-1,2,3,4-tetrahydroisoquinolin-6-yl]-2H-indazol-2-yl}cyclohexyl]methyl}-2,3,5-trifluoro-4-hydroxybenzamide, trifluoroacetate salt] | 0.23 nM | 81%
9 | O=C1CCC(N2Cc3c(OCc4ccc(CN5CCC(CCCOc6ccc(-c7noc([C@]89CC[C@](CNC(=O)c%10cc(F)c(O)c(F)c%10F)(CC8)CC9)n7)nn6)CC5)cc4)cccc3C2=O)C(=O)N1 (mixture of isomers) [Example 36, N-({4-[3-(6-{3-[1-({4-[{{2-[(3RS)-2,6-dioxopiperidin-3-yl]-1-oxo-2,3-dihydro-1H-isoindol-4-yl}oxy)methyl]phenyl}methyl)piperi-din-4-yl]propoxy}pyridazin-3-yl)-1,2,4-oxadiazol-5-yl]bicyclo[2.2.2]octan-1-yl}methyl)-2,3,5-trifluoro-4-hydroxybenzamide, trifluoroacetate salt] | 2.2 nM | 86%
10 | O=C1CCC(N2Cc3c(OCc4ccc(CN5CCC(CCCOc6ccc(-c7noc([C@]89CC[C@](CNC(=O)c%10cc(F)c(O)c(F)c%10)(CC8)CC9)n7)nn6)CC5)cc4)cccc3C2=O)C(=O)N1 (mixture of isomers) [Example 37, N-({4-[3-(6-{3-[1-({4-[({2-[(3RS)-2,6-dioxopiperidin-3-yl]-1-oxo-2,3-dihydro-1H-isoindol-4-yl}oxy)methyl]phenyl}methyl)piperi-din-4-yl]propoxy}pyridazin-3-yl)-1,2,4-oxadiazol-5-yl]bicyclo[2.2.2]octan-1-yl}methyl)-3,5-difluoro-4-hydroxybenzamide, trifluoroacetate salt] | 2 nM | 85%
11 | Cn1c(=O)n(C2CCC(=O)NC2=O)c2ccc(CCCCNc3ncc(-c4ccc5cn([C@H]6CC[C@H](CNC(=O)c7cc(F)c(O)c(F)c7F)CC6)nc5c4)cn3)cc21 (mixture of isomers) [Example 38, N-{[(1r,4r)-4-(6-{2-[(4-{1-[(3RS)-2,6-dioxopiperidin-3-yl]-3-methyl-2-oxo-2,3-dihydro-1H-benzimidazol-5-yl}butyl)amino]pyrimidin-5-yl}-2H-indazol-2-yl)cyclohexyl]methyl}-2,3,5-trifluoro-4-hydroxybenzamide] | 2.6 nM | 79%
12 | Cn1c(=O)n(C2CCC(=O)NC2=O)c2ccc(CCCCCC(=O)N3CCN(c4ccc5cn([C@H]6CC[C@H](CNC(=O)c7cc(F)c(O)c(F)c7F)CC6)nc5c4)CC3)cc21 (mixture of isomers) [Example 39, N-{[(1r,4r)-4-{6-[4-(6-{1-[(3RS)-2,6-dioxopiperidin-3-yl]-3-methyl-2-oxo-2,3-dihydro-1H-benzimidazol-5-yl}hexanoyl)piperazin-1-yl]-2H-indazol-2-yl}cyclohexyl]methyl}-2,3,5-trifluoro-4-hydroxybenzamide, trifluoroacetate salt] | 1.1 nM | 86%
